Experimental findings from patent publication US11116760B2 (Gilead Sciences, Inc., priority 2018, dated 2021) are described below.

For this assay, the target named is α4β7 integrin (Homo sapiens (Human), UniProt P13612+P26010). The assay can be described thus: α4β7 Integrin Cell Capture Assay. The assay is classed as cell-based. Particulars: RPMI8866 cells captured on MadCAM-1 extracellular domain-coated plate.
Chain of α4β7 integrin (P13612 34-1032): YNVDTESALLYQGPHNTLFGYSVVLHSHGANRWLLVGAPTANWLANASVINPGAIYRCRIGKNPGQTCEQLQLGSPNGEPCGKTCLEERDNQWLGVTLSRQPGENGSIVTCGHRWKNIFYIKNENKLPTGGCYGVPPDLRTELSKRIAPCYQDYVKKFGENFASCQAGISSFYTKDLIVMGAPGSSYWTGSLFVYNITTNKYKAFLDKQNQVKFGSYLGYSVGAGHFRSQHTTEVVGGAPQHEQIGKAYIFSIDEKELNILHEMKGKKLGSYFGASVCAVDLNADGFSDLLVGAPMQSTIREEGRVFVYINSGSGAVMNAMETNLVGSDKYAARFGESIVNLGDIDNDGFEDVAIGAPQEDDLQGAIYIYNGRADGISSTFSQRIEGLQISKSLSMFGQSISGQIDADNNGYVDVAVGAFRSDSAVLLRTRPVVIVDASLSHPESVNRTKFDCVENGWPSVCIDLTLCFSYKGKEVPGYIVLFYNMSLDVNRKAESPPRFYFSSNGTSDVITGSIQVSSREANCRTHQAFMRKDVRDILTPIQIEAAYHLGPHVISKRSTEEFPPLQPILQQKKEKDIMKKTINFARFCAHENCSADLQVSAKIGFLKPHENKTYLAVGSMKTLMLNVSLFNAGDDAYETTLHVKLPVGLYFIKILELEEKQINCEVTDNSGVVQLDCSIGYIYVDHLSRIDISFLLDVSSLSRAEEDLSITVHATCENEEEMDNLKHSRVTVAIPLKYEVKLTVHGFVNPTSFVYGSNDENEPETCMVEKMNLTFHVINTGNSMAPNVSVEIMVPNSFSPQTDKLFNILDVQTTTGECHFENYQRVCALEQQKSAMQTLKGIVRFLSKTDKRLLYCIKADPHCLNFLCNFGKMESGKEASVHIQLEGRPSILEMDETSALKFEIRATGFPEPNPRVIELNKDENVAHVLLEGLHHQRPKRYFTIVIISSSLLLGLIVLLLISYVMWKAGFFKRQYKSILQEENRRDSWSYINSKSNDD
Chain of α4β7 integrin (P26010 20-798): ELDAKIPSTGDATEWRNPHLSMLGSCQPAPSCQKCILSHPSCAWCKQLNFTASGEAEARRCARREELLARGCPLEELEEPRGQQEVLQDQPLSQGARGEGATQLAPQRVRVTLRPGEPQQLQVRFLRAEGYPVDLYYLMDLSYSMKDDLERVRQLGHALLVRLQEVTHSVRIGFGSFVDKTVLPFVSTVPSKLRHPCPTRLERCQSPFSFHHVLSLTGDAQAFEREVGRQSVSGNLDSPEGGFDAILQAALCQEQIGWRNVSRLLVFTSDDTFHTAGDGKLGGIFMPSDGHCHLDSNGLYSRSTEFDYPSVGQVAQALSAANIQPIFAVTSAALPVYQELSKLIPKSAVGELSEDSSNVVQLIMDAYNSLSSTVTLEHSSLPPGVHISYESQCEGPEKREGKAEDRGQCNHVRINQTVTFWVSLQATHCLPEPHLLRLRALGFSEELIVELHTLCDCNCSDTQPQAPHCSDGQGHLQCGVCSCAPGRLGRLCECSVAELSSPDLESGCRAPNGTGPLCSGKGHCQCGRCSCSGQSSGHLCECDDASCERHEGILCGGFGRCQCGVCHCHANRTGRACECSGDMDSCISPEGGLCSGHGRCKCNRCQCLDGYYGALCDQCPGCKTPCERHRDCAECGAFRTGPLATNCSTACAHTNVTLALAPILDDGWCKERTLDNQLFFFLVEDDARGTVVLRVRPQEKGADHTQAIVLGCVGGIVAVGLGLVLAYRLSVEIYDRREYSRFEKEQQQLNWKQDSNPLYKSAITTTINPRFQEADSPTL

In turn, `Cc1cc2c(=O)n(-c3ccc(C[C@H](NC(=O)c4c(C)cc(N5CCOC[C@@H]5C(F)(F)F)cc4F)C(=O)O)c4cccnc34)c(=O)n(C)c2cn1` [Example 425] came in with an EC50 of 0.185 nM.
Then `Cc1cc(N2CCOC[C@@H]2C(F)(F)F)cc(F)c1C(=O)N[C@@H](Cc1ccc(-n2c(=O)c3ccncc3n(C)c2=O)c2ncc(F)cc12)C(=O)O` [Example 426], with 0.096 nM; and `Cc1cc(N2CCOC[C@@H]2C(F)(F)F)cc(F)c1C(=O)N[C@@H](Cc1ccc(-n2c(=O)c3cnccc3n(C)c2=O)c2ncc(F)cc12)C(=O)O` [Example 427], with 0.355 nM.
The molecule `COc1cc2c(=O)n(-c3ccc(C[C@H](NC(=O)c4c(F)cc(N5CCOC[C@@H]5C(F)(F)F)cc4F)C(=O)O)c4cccnc34)c(=O)n(C)c2cn1` [Example 428] gave an EC50 of 0.18 nM.
Then `COc1cc2c(=O)n(-c3ccc(C[C@H](NC(=O)c4c(C)cc(N5CCOC[C@@H]5C(F)(F)F)cc4F)C(=O)O)c4cccnc34)c(=O)n(C)c2cn1` [Example 429], with 0.162 nM; and `Cn1c(=O)n(-c2ccc(C[C@H](NC(=O)c3c(F)cc(N4CCOC[C@@H]4C(F)(F)F)cc3F)C(=O)O)c3cc(F)cnc23)c(=O)c2cnccc21` [Example 430], with 0.469 nM.
In the case of `Cc1cc(N2CCOC[C@@H]2C(F)(F)F)cc(F)c1C(=O)N[C@@H](Cc1ccc(-n2c(=O)c3ccc(F)cc3n(C)c2=O)c2ncccc12)C(=O)O` [Example 431] it was 0.094 nM.
Consider `Cc1cc(N2CCOC[C@@H]2C(F)(F)F)cc(F)c1C(=O)N[C@@H](Cc1ccc(-n2c(=O)c3cccnc3n(C)c2=O)c2ncccc12)C(=O)O` [Example 432], for which the EC50 amounted to 0.11 nM.
In turn, `Cc1cc(N2CCOC[C@@H]2C(F)(F)F)cc(F)c1C(=O)N[C@@H](Cc1cc(F)c(-n2c(=O)c3ccncc3n(C)c2=O)c2ncccc12)C(=O)O` [Example 433] yielded an EC50 of 0.076 nM.
`Cc1cc(N2CCOC[C@@H]2C(F)(F)F)cc(F)c1C(=O)N[C@@H](Cc1ccc(-n2c(=O)c3cnccc3n(C)c2=O)c2ncccc12)C(=O)O` [Example 434]: the EC50 worked out at 0.103 nM.
In the case of `Cc1cc(-c2nccn2CC(F)(F)F)cc(F)c1C(=O)N[C@@H](Cc1ccc(-c2c(C(F)(F)F)cc(C)n(C)c2=O)c2ncccc12)C(=O)O` [Example 435] it was 0.524 nM.
Then `CN1CCc2c(cc(-c3ccc(C[C@H](NC(=O)c4c(F)cc(N5CCOC[C@@H]5C(F)(F)F)cc4F)C(=O)O)c4cccnc34)c(=O)n2C)C1` [Example 437], with 0.261 nM.
In the case of `Cn1c2c(cc(-c3ccc(C[C@H](NC(=O)c4c(F)cc(N5CCOC[C@@H]5C(F)(F)F)cc4F)C(=O)O)c4cccnc34)c1=O)CNCC2` [Example 438] it was 0.291 nM; in that of `CC[C@@H](Nc1cc(C)c(C(=O)N[C@@H](Cc2ccc(-n3c(=O)c4ccncc4n(C)c3=O)c3ncccc23)C(=O)O)c(F)c1)C(F)(F)F` [Example 439], 0.049 nM; in that of `Cc1nc(C)n(C)c(=O)c1-c1ccc(C[C@H](NC(=O)c2c(F)cc(N3CCOC[C@@H]3C(F)(F)F)cc2F)C(=O)O)c2cccnc12` [Example 440], 0.25 nM.
With `Cc1cc(C(F)(F)F)c(-c2ccc(C[C@H](NC(=O)c3c(F)cc(N4CCCOCC4)cc3F)C(=O)O)c3cccnc23)c(=O)n1C` [Example 441], the EC50 came out at 0.412 nM.
Then `CC[C@@H](Nc1cc(C)c(C(=O)N[C@@H](Cc2ccc(-c3c(C)nc(C)n(C)c3=O)c3ncccc23)C(=O)O)c(F)c1)C(F)(F)F` [Example 442], with 0.227 nM.
In the case of `Cc1cc(N2CCOC[C@@H]2C(F)(F)F)cc(F)c1C(=O)N[C@@H](Cc1ccc(-c2nc(C)c(C)c(C)n2)c2ncccc12)C(=O)O` [Example 443] it was 0.714 nM; in that of `Cc1cc(N2CCOC[C@@H]2C(F)(F)F)cc(F)c1C(=O)N[C@@H](Cc1ccc(-c2ccc(C)n(C)c2=O)c2ncccc12)C(=O)O` [Example 444], 0.161 nM.
Then `CC[C@@]1(C)CN(c2cc(F)c(C(=O)N[C@@H](Cc3ccc(-c4c(C(F)(F)F)cc(C)n(C)c4=O)c4ncccc34)C(=O)O)c(F)c2)CCO1` [Example 445], with 0.984 nM; and `Cc1cc(N2CCOC[C@@H]2C(F)(F)F)cc(C)c1C(=O)N[C@@H](Cc1ccc(-c2c(C(F)(F)F)cc(C)n(C)c2=O)c2ncccc12)C(=O)O` [Example 446], with 0.318 nM.
For the molecule `Cc1cc(C(F)(F)F)c(-c2ccc(C[C@H](NC(=O)c3c(F)cc(N4CCO[C@@H](C(F)(F)F)C4)cc3F)C(=O)O)c3cccnc23)c(=O)n1C` [Example 447], a half-maximal response (EC50) required 0.271 nM.
In the case of `Cc1cc(N2CCOC[C@@H]2C(F)(F)F)cc(F)c1C(=O)N[C@@H](Cc1ccc(-c2cc(C(F)(F)F)c(C)n(C)c2=O)c2ncccc12)C(=O)O` [Example 448] it was 0.307 nM; in that of `Cc1cc(N2CCOC[C@@H]2C(F)(F)F)cc(F)c1C(=O)N[C@@H](Cc1ccc(-c2c(Cl)cc(C)n(C)c2=O)c2ncccc12)C(=O)O` [Example 449], 0.092 nM; in that of `Cc1cc(N2CCOC[C@@H]2C(F)(F)F)cc(F)c1C(=O)N[C@@H](Cc1ccc(-c2cc(N(C)C)c(C)n(C)c2=O)c2ncccc12)C(=O)O` [Example 450], 1.02 nM.
In turn, `Cc1cc(N2CCOC[C@@H]2C(F)(F)F)cc(F)c1C(=O)N[C@@H](Cc1ccc(-c2c(C)c(Cl)cn(C)c2=O)c2ncccc12)C(=O)O` [Example 451] yielded an EC50 of 0.208 nM. Compared with the last molecule, the EC50 is about 4.9-fold lower.
Then `Cc1cc(N2CCOC[C@@H]2C(F)(F)F)cc(F)c1C(=O)N[C@@H](Cc1ccc(-c2nc(C)c(C)n(C)c2=O)c2ncc(F)cc12)C(=O)O` [Example 452], with 0.232 nM; and `Cc1cc(N2CCCC[C@@H]2C(F)(F)F)cc(F)c1C(=O)N[C@@H](Cc1ccc(-c2nc(C)c(C)n(C)c2=O)c2ncccc12)C(=O)O` [Example 453], with 0.677 nM; and `Cc1cc(N2CCOC[C@@H]2C(F)(F)F)cc(F)c1C(=O)N[C@@H](Cc1ccc(-c2cc(C)c(C)n(C)c2=O)c2ncccc12)C(=O)O` [Example 455], with 0.211 nM.
In the case of `CC[C@@H](Nc1cc(F)c(C(=O)N[C@@H](Cc2ccc(-c3nc(C)c(C)n(C)c3=O)c3ncccc23)C(=O)O)c(F)c1F)C(F)(F)F` [Example 456] it was 0.248 nM; in that of `Cc1cc(N2CCOC[C@@H]2C(F)(F)F)cc(F)c1C(=O)N[C@@H](Cc1ccc(-c2c(C)c(C(F)(F)F)cn(C)c2=O)c2ncccc12)C(=O)O` [Example 457], 0.238 nM.
`Cc1cc(N2CCOC[C@@H]2C(F)(F)F)cc(F)c1C(=O)N[C@@H](Cc1ccc(-c2c(C(F)(F)F)nc(C)n(C)c2=O)c2ncccc12)C(=O)O` [Example 458] displayed an EC50 of 0.09 nM.
Then `Cc1cc(C(F)(F)F)c(-c2ccc(C[C@H](NC(=O)c3c(F)cc(N4CCOC5(COC5)C4)cc3F)C(=O)O)c3cccnc23)c(=O)n1C` [Example 459], with 2.07 nM; and `Cc1cc(N2CCOC[C@@H]2C(F)(F)F)cc(F)c1C(=O)N[C@@H](Cc1ccc(-c2c(C)nc(C)n(C)c2=O)c2ncccc12)C(=O)O` [Example 460], with 0.15 nM; and `[2H]C([2H])([2H])c1cc(N2CCOC[C@@H]2C(F)(F)F)cc(F)c1C(=O)N[C@@H](Cc1ccc(-c2c(C(F)(F)F)cc(C)n(C)c2=O)c2ncccc12)C(=O)O` [Example 462], with 0.102 nM.
Then `Cc1cc(C(F)(F)F)c(-c2ccc(C[C@H](NC(=O)c3c(F)cc(N4CCOC[C@@H]4C(F)(F)F)cc3C3CC3)C(=O)O)c3cccnc23)c(=O)n1C` [Example 463], with 0.205 nM.

For orientation: EC50 means the concentration at which the effect is half-maximal. Low readings indicate an effect from little substance, high ones a need for much substance.
